Assay results from article PMC6943918 (The Biochemical journal, 2014).

Molecular target: T1, ZmTenA_E (maize TenA_E, GRMZM2G080501) (Zea mays, UniProt B6TPF2)
T1 sequence (B6TPF2 1-224): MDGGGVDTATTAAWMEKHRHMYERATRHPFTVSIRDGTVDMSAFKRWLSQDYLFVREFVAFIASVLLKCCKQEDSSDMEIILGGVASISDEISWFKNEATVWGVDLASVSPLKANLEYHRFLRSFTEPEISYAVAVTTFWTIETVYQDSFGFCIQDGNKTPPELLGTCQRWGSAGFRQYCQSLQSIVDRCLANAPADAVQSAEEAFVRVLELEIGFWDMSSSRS
Experiment: HPLC-UV
Assay type: biochemical
Details: amino-HMP aminohydrolase; 100 nmol substrate, 50 μg enzyme, 4 h, 30°C

Cc1ncc(CN)c(N)n1 [Amino-HMP, 4-amino-5-aminomethyl-2-methylpyrimidine]
HPLC-UV (235 nm) hydrolysis assay: both plant TenA_E proteins had some activity against amino-HMP
